Experimental data taken from patent publication US6537965B1, “Amino-terminal modified parathyroid hormone (PTH) analogs” (The General Hospital Corporation, priority 1998, dated 2003).
Ends that are not written are not given here. Peptide text beside a SMILES is read from it. * marks the point of attachment. Propionyl = CCC(=O)*

What was measured:
Type in all cases: cell-based
hPTH-1 receptors [1] = molecular target: T1, hPTH-1 receptors (Homo sapiens, UniProt Q03431); test: cAMP measurements in SaOS-2 cells; set-up: expressed in transfected cells; settings: SaOS-2 cells, 10,000-20,000 human PTH-1 receptors per cell; up to 1 uM (FIG. 2)
T1 sequence (Q03431 27-593): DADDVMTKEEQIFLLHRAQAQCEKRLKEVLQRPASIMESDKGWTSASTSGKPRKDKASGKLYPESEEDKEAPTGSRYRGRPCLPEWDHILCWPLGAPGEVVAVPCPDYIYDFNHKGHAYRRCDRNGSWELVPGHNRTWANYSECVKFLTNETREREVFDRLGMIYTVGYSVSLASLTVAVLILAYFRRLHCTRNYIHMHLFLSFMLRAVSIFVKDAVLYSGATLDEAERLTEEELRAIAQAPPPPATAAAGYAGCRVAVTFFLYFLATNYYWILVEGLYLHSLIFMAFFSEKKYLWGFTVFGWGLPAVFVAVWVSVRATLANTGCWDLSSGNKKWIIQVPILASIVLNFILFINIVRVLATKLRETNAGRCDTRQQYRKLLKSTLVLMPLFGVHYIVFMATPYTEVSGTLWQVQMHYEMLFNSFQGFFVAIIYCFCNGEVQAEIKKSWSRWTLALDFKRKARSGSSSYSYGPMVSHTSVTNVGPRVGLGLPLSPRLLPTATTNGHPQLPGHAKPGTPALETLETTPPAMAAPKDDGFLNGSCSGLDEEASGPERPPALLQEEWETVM
Excerpt: (§1) The following cell lines were used in these studies. HKRK C53 subclones of LLC-PKI porcine renal epithelial cells which stably express human PTH-1 receptors (150,000 receptors/cell). SaOS-2 cells are transformed human osteosarcoma cells which express relatively few (10,000-20,000 per cell) human PTH-1 receptors. HPR2-7 cells are subclones of LLC-PK1 which express approximately 250,000 recombinant human PTH-2 receptors per cell. HKRK-B7 cells are subclones of LLC-PK which stably express approximately 1 million hPTH-1 receptors per cell. HPR2-22 cells are subclones of LLC-PK1 which express 1.5 million recombinant hPTH-2 receptors per cell. The HPR2-27 and HPR2-22 cell lines were created in the same fashion as the HKRK cells but employing instead type 2 PTH receptor cDNA using the transfection technique of (Bringhurst, F. R., et al., Endocrinology 132(5):2090-2098 (1993); Guo, J., et al., Endocrinology 136(9):3884-3891 (1995)).
(§2) Intracellular cAMP accumulation, PLC activation and PTHR binding affinity were measured as previously reported (Bringhurst, F. R., et al., Endocrinology 132(5):2090-2098 (1993); Guo, J., et al., Endocrinology 136(9):3884-3891 (1995)). Intracellular cAMP accumulation was measured in extracts of cells that were exposed to human PTH peptides in the presence of isobutylmethyxanthine (IBMX, 1 mM) at 37° C. for 15 min. After terminating the reactions by aspiration and freezing in liquid nitrogen, cell monolayers were extracted with 50 mM HCl and cAMP was measured using a radioimmunoassay kit (Dupont-New England Nuclear, Boston, Mass.).

hPTH-1 receptors [2] = molecular target: T1, hPTH-1 receptors; test: phospholipase C (PLC) activity in HKRK-B7 cells; set-up: expressed in transfected cells; settings: for activation of PLC: about 1 million hPTH-1 receptors per cell, 1000 nM (FIG. 4)
Excerpt: as §1
(§3) PLC was activated by PTH agonists in the presence of 30 mM LiCl at 37° C. for 30 min after 16 hr of labeling with [^3H]myo-inositol (3uCi/ml) in serum-free medium containing 0.1% bovine serum albumin. The reactions were stopped by rapid aspiration and addition of cold 5% TCA. Water-soluble radiolabeled inositol trisphosphate (IP3) was isolated after ether extraction by ion-exchange chromatography (Guo, J., et al., Endocrinology 136(9):3884-3891 (1995)). In experiments involving HEK 293 cells, cells previously transfected with human PTHR cDNA (in the pcDNA1 expression vector HKRK) using Lipofectamine (Gibco BRL) were labeled with [^3H]myo-inositol and assayed as described above, except that total water-soluble [^3H]inositol polyphosphates were collected as a single fraction from the ion-exchange columns.

hPTH-1 receptors [3] = molecular target: T1, hPTH-1 receptors; test: cAMP accumulation (adenylyl cyclase activation) in HKRK C53 cells; set-up: expressed in transfected cells; settings: for cyclic AMP accumulation, efficacy compared with native hPTH(1-34)NH2: HKRK C53 cells, about 150,000 hPTH-1 receptors per cell, 10^-9M and 10^-7M peptide (FIG. 1); for reduction of AC activity relative to hPTH(1-34): via the human PTH-1 receptor, clonal LLC-PK1 cells
Excerpt: as §1, with “HKRK-B7 cells are subclones of LLC-PK which stably express approximately 1 million hPTH-1 receptors per cell. HPR2-22 cells are subclones of LLC-PK1 which express 1.5 million recombinant hPTH-2 receptors per cell.” left out
as §2

hPTH-2 receptors [4] = molecular target: T2, hPTH-2 receptors (Homo sapiens, UniProt P49190); test: phospholipase C activation in HPR2-22 cells; settings: 1.5 million hPTH-2 receptors per cell, 1,000 nM (FIG. 5)
T2 construct: expressed in transfected cells
Excerpt: as §1, §3

hPTH-2 receptors [5] = molecular target: T2, hPTH-2 receptors; test: cAMP measurements in clonal LLC-PK1 cells (HPR2-7); settings: for cAMP responsiveness, efficacy compared with hPTH(1-34)NH2 / maximal cyclase activation (maximal response) compared with hPTH(1-34): HPR2-7 cells; for cAMP responsiveness, efficacy compared with hPTH(1-34)NH2: about 250,000 human PTH-2 receptors per cell (FIG. 3); for maximal cyclase activation (maximal response) compared with hPTH(1-34) / EC50 lower than that of hPTH(1-34): human PTH-2 receptor; for maximal cyclase activation (maximal response) compared with hPTH(1-34): very high concentrations (1 micromolar); for EC50: clonal LLC-PK1 cells stably expressing human PTH-2 receptors, read-out: EC50 for activation of AC
Excerpt: as §1, with “HKRK-B7 cells are subclones of LLC-PK which stably express approximately 1 million hPTH-1 receptors per cell. HPR2-22 cells are subclones of LLC-PK1 which express 1.5 million recombinant hPTH-2 receptors per cell.” left out
as §2

hPTH-1 receptors [6] = molecular target: T1, hPTH-1 receptors; test: AC activation in HKRK B7 cells; set-up: expressed in transfected cells; settings: HKRK B7 cells (large number of human PTH-1 receptors)
Excerpt: as §1, §2

T2 sequence (P49190 25-550): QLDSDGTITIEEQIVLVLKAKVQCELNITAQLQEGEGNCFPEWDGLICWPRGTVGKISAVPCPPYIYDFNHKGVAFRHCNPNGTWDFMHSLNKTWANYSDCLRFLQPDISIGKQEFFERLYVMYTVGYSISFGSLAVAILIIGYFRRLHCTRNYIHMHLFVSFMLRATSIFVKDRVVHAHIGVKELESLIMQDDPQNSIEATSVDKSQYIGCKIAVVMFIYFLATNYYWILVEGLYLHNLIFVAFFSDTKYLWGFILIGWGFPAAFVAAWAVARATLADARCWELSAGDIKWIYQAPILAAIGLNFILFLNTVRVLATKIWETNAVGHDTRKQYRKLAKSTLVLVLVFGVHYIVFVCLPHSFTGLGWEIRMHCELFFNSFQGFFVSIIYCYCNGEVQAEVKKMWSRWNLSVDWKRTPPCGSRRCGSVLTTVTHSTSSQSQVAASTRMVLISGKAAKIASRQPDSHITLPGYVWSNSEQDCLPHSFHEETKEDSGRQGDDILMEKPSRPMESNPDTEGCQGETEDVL

Molecule	cyclase (cAMP) activity compared with control hPTH(1-34) (hPTH-1 receptors [1])	PLC activity as % of the hPTH(1-34) maximum (hPTH-1 receptors [2]; 1000 nM)	activation of PLC (hPTH-1 receptors [2])	cyclic AMP accumulation, efficacy compared with native hPTH(1-34)NH2 (hPTH-1 receptors [3])	activation of phospholipase C (hPTH-2 receptors [4])	cAMP responsiveness, efficacy compared with hPTH(1-34)NH2 (hPTH-2 receptors [5])	maximal cyclase activation (maximal response) compared with hPTH(1-34) (hPTH-2 receptors [5]; listed as desamino-[Gly^1])	maximal cyclase activation (maximal response) compared with hPTH(1-34) (hPTH-2 receptors [5]; listed as desamino-[Gly^1]hPTH(1-34))	EC50 (hPTH-2 receptors [5]) [nM]	EC50 lower than that of hPTH(1-34) (hPTH-2 receptors [5]) [fold]	activation of AC compared with hPTH-(1-34) (hPTH-1 receptors [6])	reduction of AC activity relative to hPTH(1-34) (hPTH-1 receptors [3]) [fold]	maximal cyclase activation (maximal response) compared with hPTH(1-34) (hPTH-2 receptors [5]; listed as desamino-[Ala^1])	maximal cyclase activation (maximal response) compared with hPTH(1-34) (hPTH-2 receptors [5]; listed as desamino-[Ala^1]hPTH(1-34))
[Gly^1]hPTH(1-34)NH2: hPTH-(1-34) with substitution of Gly^1 for Ser^1 (GVSEIQLMHNLGKHLNSMERVEWLRKKLQDVHNF-NH2; not fully specified (residue 1); UniProt P01270 32-65, looked up, variant S1G)	comparable to that of the control peptide	approximately 50%	only a partial agonist	nearly the same efficacy	–	–	–	–	–	–	–	–	–	–
Ac-VSEIQLMHNLGKHLNSMERVEWLRKKLQDVHNF-NH2 [desamino-[Gly^1]hPTH(1-34)NH2]	minimal activity	–	no activation of PLC	–	greater maximal activation	enhanced efficacy	substantially greater	twice	10	3	approximately equipotent	10	–	–
CCC(=O)N[C@H](C(=O)N[C@@H](CO)C(=O)N[C@@H](CCC(=O)O)C(=O)N[C@H](C(=O)N[C@@H](CCC(N)=O)C(=O)N[C@@H](CC(C)C)C(=O)N[C@@H](CCSC)C(=O)N[C@@H](Cc1c[nH]cn1)C(=O)N[C@@H](CC(N)=O)C(=O)N[C@@H](CC(C)C)C(=O)NCC(=O)N[C@@H](CCCCN)C(=O)N[C@@H](Cc1c[nH]cn1)C(=O)N[C@@H](CC(C)C)C(=O)N[C@@H](CC(N)=O)C(=O)N[C@@H](CO)C(=O)N[C@@H](CCSC)C(=O)N[C@@H](CCC(=O)O)C(=O)N[C@@H](CCCNC(=N)N)C(=O)N[C@H](C(=O)N[C@@H](CCC(=O)O)C(=O)N[C@@H](Cc1c[nH]c2ccccc12)C(=O)N[C@@H](CC(C)C)C(=O)N[C@@H](CCCNC(=N)N)C(=O)N[C@@H](CCCCN)C(=O)N[C@@H](CCCCN)C(=O)N[C@@H](CC(C)C)C(=O)N[C@@H](CCC(N)=O)C(=O)N[C@@H](CC(=O)O)C(=O)N[C@H](C(=O)N[C@@H](Cc1c[nH]cn1)C(=O)N[C@@H](CC(N)=O)C(=O)N[C@@H](Cc1ccccc1)C(N)=O)C(C)C)C(C)C)[C@@H](C)CC)C(C)C [desamino-[Ala^1]hPTH(1-34)NH2] (Propionyl-VSEIQLMHNLGKHLNSMERVEWLRKKLQDVHNF-NH2)	minimal activity	–	no activation of PLC	–	greater maximal activation	enhanced efficacy	–	–	10	3	approximately equipotent	10	substantially greater	twice
[Ala^1]hPTH(1-34)NH2: hPTH-(1-34) with substitution of Ala^1 for Ser^1 (AVSEIQLMHNLGKHLNSMERVEWLRKKLQDVHNF-NH2; not fully specified (residue 1); UniProt P01270 32-65, looked up, variant S1A)	comparable to that of the control peptide	–	fill agonists	nearly the same efficacy	–	–	–	–	–	–	–	–	–	–
